Assay results as given in patent US10076576B2, “Minimally toxic prodrugs” (priority 2012, dated 2018).
Where “and” joins values, the source holds several entries; their conditions need not be identical. Equal values may be shown once. Read-outs that look alike come from different tables or passages of the source.

Tests used:
[1] = system: Cor.At® cells (mouse embryonic stem cell derived cardiomyocytes); assay: In vitro cytotoxicity on Cor.At cardiomyocytes (neutral red uptake); format: cell-based; conditions: 48 h
Procedure: FIG. 5. In vitro cellular toxicity of PhAc-ALGP-Dox and Doxorubicin on Cor.At® cells (mouse embryonic stem cell derived cardiomyocytes). As non-specific control, the test was also performed on inactivated mouse embryonic fibroblasts (MEF). Cells were cultured for 48 h in the presence of drugs and a neutral red uptake test was performed to determine cell viability. Results represent the cytotoxicity curves. The IC50 values were calculated from the cytotoxicity curves using the Prism GraphPad software 5.0.
The in vitro cardiotoxicity test was carried out in a relevant and predictive in vitro model for cardiac safety screening in early lead optimization using mouse embryonic stem cell derived cardiomyocytes (Cor.At®, Axiogenesis (Germany)). Cor.At® cardiomyocytes provide a standardized, homogenous and reproducible cell system for the in vitro classification of a compound's cardio-cytotoxic potential. After incubation with test compounds, the neutral red uptake test was used to determine effects which directly affect the viability and integrity of cardiac cells when compared to a non-specific reference cell type, e.g. mouse fibroblasts (MEF).

[2] = system: UZLX-STS3 dedifferentiated liposarcoma xenograft
From the text: FIG. 16. Effect of PhAc-ALGP on a UZLX-STS3 xenograft model. UZLX-STS3 is a tissue xenograft derived from a patient diagnosed with dedifferentiated liposarcoma (DDLPS).
A total of 24 mice were bilaterally transplanted with UZLX-STS3 (tissue xenografts of passage 10). Animals were randomly assigned to three different groups: a control group (saline; -●-); A PhAc-ALGP-doxorubicin group (cumulative dose 1.20 mmol/kg; -▪-) and a doxorubicin group (cumulative dose 0.03 mmol/kg; -▴-). The drugs were administered intraperitoneally during 7 days by continuous release via an Alzet® osmotic pump, with delivery rate of 0.5 μl/h over 7 days. The experiment lasted 21 days (7 days of treatment+14 days of observation). Tumor volume and mouse body weight were evaluated at baseline and subsequently three times per week until the end of each experiment. After 21 days mice were sacrificed. Tumor volume is recorded 3× weekly by 3-dimensional caliper measurement. Data are presented as the average of the relative tumor volumes per group±standard deviation.
The comparison between the tumor volumes on day zero and the volumes on the last day of the experiments was done by Wilcoxon's matched paired test. The comparisons between different groups were performed using the Mann-Whitney U test (relative tumor volumes, histologic assessment). […] The […] software (StatSoft, version 12.0) was used for all the calculations.
(§1) FIG. 18. Data are presented as the average of the white blood cell count of mice in every group±standard deviation. The dashed lines mark the reference values for nu/nu NMRI mouse strain. PhAc-ALGP-doxorubicin (-▪-); Dox (-▴-); and saline (-●-). Total white blood cell count was determined using the CELL-DYN 3500 multiparameter automated hematology analyzer with optimization for murine blood parameters (Abott Diagnostics, Division, Ill., USA)
as §1, with “19.” for “18.”, “neutrophil” for “white blood cell”, “Neutrophil” for “Total white blood cell”

[3] = system: MX-1 mammary carcinoma human xenografts; assay: Efficacy after repeated ip injections (2Q1D5×2W), MX-1 xenograft; format: in vivo, NMRI nude mice; conditions: for TGI [% (day)]: day 35; for body weight loss (in words): Doxorubicin 1 μmol/kg (MTD), PhAc-ALGP-Dox 50 μmol/kg, ip 2Q1D5×2W
Procedure: FIG. 10. […] Drugs or controls were administered by the i.p. route twice a day for five consecutive days (arrows). Treatment was repeated with 72 hours interval between two cycles.

[4] = Pharmacokinetics and heart quantification after single ip injection; conditions: for Dox concentration in heart after 24 h: ip 92 μmol/kg of the labelled drug, ± SD
Procedure: (§2) Time evolution of blood concentration of PhAc-ALGP-Dox and its metabolites (A) or of Doxorubicin (B) after intraperitoneal injection to OF-1 female wild type mice at the equimolar dose of 92 μmol/kg. Results represent the mean concentration±SD (n=3).
(§3) Pharmacokinetic tissue distribution studies were performed using OF-1 mice. Doxorubicin and PhAc-ALGP-Dox were dissolved in saline at the dose of 9.2 mM and administered to mice by intraperitoneal route (10 μL/g, 6 mice per group). At different time points after drug administration (5 min, 30 min, 1 h, 4 h, and 24 h), blood samples were collected from the lateral tail vein of three mice using EDTA-coated microtubes (Starsted). After 24 h, 3 mice per group were sacrificed by cervical dislocation and hearts were collected. They were incised and rinsed carefully in phosphate buffer saline (to eliminate blood in the cardiac cavities), dried on paper and frozen in liquid nitrogen. They were stored until analysis. The hearts were homogenized with an Ultraturrax homogenizer in 1.5 mL water. The protein concentration was measured using the microBCA protein assay (Pierce). The drug tissue quantification was made by HPLC after extraction: 150 μL of acetonitrile was added to the 50 μL samples. Samples were vortexed and centrifuged for 10 min at 13 000 rpm at room temperature. Supernatant was collected. Samples were buffered by addition of 200 mM formiate buffer pH 4.5 (1 V sample supernatant+3 V buffer) before HPLC analysis (fluo detection ex=235 nm em=560 nm).

[5] = in vivo; conditions: female, OF-1, mouse, ip, 92 umol/kg
Procedure: as §2, §3

[6] = system: LoVo colon carcinoma human xenografts; assay: Efficacy, similar study, ip 2Q1D5×2W (Table 9)
Procedure: The efficacy of PhAc-ALGP-Dox was assessed using athymic mice (nude/nude NMRI) carrying ectopic xenograft of human LoVo colon carcinoma or of MX-1 mammary carcinoma in comparison with free Doxorubicin. Tumors were established by a subcutaneous implantation of cells (10^7 cells) in the right flank of 6 weeks old female NMRI nude mice (Harlan). Treatments were administered when the tumors reached a size of 150-200 mm^3 (measured using a caliper and calculated with the following formula: […]). Animals were randomly assigned to groups of 4 to-6 animals. […] Compounds were delivered by bolus intraperitoneal injection (ip) at 10 μl/g. During the course of the experiment, clinical signs, body weight and tumor volume were controlled twice a week. Results are presented as the evolution of mean tumor volume as a function of time. Optimal T/C (ratio of mean tumor volume of treated versus control mice) values and TGD (tumor growth delay in reaching 1000 mm^3) were used as a measure of treatment efficacy. […] A statistical analysis was performed at day 22 using the Mann Whitney t test of the Graph Pad Prism 5.0 software.

[7] = system: B16-F10 murine melanoma cells; format: in vivo, C57BL6 mice
Procedure: FIG. 11. Evaluation of PhAc-ALGP-Dox efficacy in comparison with Doxorubicin in the B16-F10 lung metastatic melanoma model. Graph on the left side represents quantification of melanin of lung metastasis at day 14 after injection of B16F10 tumor cells. Graph on the right side show the survival curves.
The efficacy of PhAc-ALGP-Dox was tested in the well described B16-F10 lung metastatic melanoma model. For that purpose, […] B16-F10 murine melanoma cells were injected in the lateral vein of C57BL6 mice. Treatments started three days after cells injection. Animal received twice a day (at 5-6 h interval) for 5 consecutive days intraperitoneal injections (total 10 injections/mouse) of saline or of Doxorubicin at 2 and 3.5 μmol/kg or of PhAc-ALGP-Dox at 50 μmol/kg. Five mice per group were sacrificed at day 14 after cells injection. Lungs were collected and processed for melanin quantification (Molecular Pharmacology, 74: 1576-1586, 2008). Survival was determined by observation of the remaining mice.

With COc1cccc2c1C(=O)c1c(O)c3c(c(O)c1C2=O)C[C@@](O)(C(=O)CO)C[C@@H]3O[C@H]1C[C@H](N)[C@H](O)[C@H](C)O1 [Doxorubicin, reference compound] the “viability of Cor.At cardiomyocytes” value ([1]; 0.2 μg/ml) was 67%, the “toxic effect on Cor.At cardiomyocytes (in words)” value ([1]; 20 μg/ml and 2 μg/ml) was “severe toxic effect” and the “relative tumor volume at day 21” value ([2]; ip, 30 umol/kg) was 246%. The “TGI [% (day)]” value ([3]; 1 μmol/kg ip 2Q1D5×2W) was 44% and 44 (35), n = 3%, the “toxicity (in words)” value ([3]; 1.5 μmol/Kg ip 2Q1D5×2W) was “very toxic” and the “body weight loss (in words)” value [3] was “No significant body weight loss”. The “percentage of the injected dose reaching the blood compartment in the first five minutes” value ([4]; ip 92 μmol/kg) was “about 2.5%”, the “Dox concentration in heart after 24 h” value [4] was 253 ± 60 pmol/mg protein and the AUC [5] was 70.3 µM·h. The “TGD” value ([6]; 1 μmol/kg ip 2Q1D5×2W) was 5 days, the mortality ([6]; 1 μmol/kg ip 2Q1D5×2W) was “one dead mouse was found at day 29” and the “TGI [% (day)]” value ([6]; 1 μmol/kg ip 2Q1D5×2W, day 29) was 44(29), %. The “TGD” value ([6]; 1.5 μmol/kg ip 2Q1D5×2W) was 9 days, the “TGI [% (day)]” value ([6]; 1.5 μmol/kg ip 2Q1D5×2W, day 29, n = 1) was 65(29), % and the median survival ([7]; 2 μmol/kg ip 2Q1D5) was 24 days. The “amount of melanin in lung homogenate” value ([7]; 2 μmol/kg ip 2Q1D5, day 14) was 183 mg/mL, the median survival ([7]; 3.5 μmol/kg ip 2Q1D5) was 28 days and the “amount of melanin in lung homogenate” value ([7]; 3.5 μmol/kg ip 2Q1D5, day 14) was 53 mg/mL.
For COc1cccc2c1C(=O)c1c(O)c3c(c(O)c1C2=O)CC(O)(C(=O)CO)CC3OC1CC(NC(=O)C2CCCN2C(=O)CNC(=O)C(CC(C)C)NC(=O)C(C)NC(=O)CP(=O)(O)O)C(O)C(C)O1 (centres unmarked) [PhAc-ALGP-Dox, PhAc-ALGP-doxorubicin], the “toxic effect (in words)” value ([1]; all concentrations lower than 20 μg/ml) was “did not show any toxic effect”, the “neutrophil count (in words)” value ([2]; 21 days after administration at 40-times higher dose than free doxorubicin) was “unchanged netrophil count” and the “relative tumor volume at day 21” value ([2]; cumulative dose 1.20 mmol/kg ip via osmotic pump over 7 days, day 0 = 100%) was 105%. The “total white blood cells and neutrophils (in words)” value ([2]; cumulative dose 1.20 mmol/kg, versus control or doxorubicin-treated animals) was “No major changes”, the “TGI [% (day)]” value ([3]; 50 μmol/kg ip 2Q1D5×2W) was 76% and 76 (35), n = 4% and the “body weight loss (in words)” value [3] was “No significant body weight loss”. The “percentage of the injected dose reaching the blood compartment in the first five minutes” value ([4]; ip 92 μmol/kg) was “about 1%”, the “time after which the conjugate was no longer detected in blood” value ([4]; ip 92 μmol/kg) was 4 h and the “Doxorubicin cardiac accumulation versus Doxorubicin injection (times less)” value ([4]; ip 92 μmol/kg equimolar, 24 h) was 19 times. For the same compound, the “Dox concentration in heart after 24 h” value [4] was 13 ± 3 pmol/mg protein, the AUC [5] was 44.2 µM·h and the “TGD” value ([6]; 25 μmol/kg ip 2Q1D5×2W) was 9 days. For the same compound, the “TGI [% (day)]” value ([6]; 25 μmol/kg ip 2Q1D5×2W, day 29) was 54(29), %, the “TGD” value ([6]; 35 μmol/kg ip 2Q1D5×2W) was 9 days and the “TGI [% (day)]” value ([6]; 35 μmol/kg ip 2Q1D5×2W, day 29) was 53(29), %. The “TGD” value ([6]; 50 μmol/kg ip 2Q1D5×2W) was 22 days, the “maximum body weight loss” value ([6]; 50 μmol/kg ip 2Q1D5×2W, day 9) was 13% and the “TGI [% (day)]” value ([6]; 50 μmol/kg ip 2Q1D5×2W, day 29) was 73% and 73(29), %. For the same compound, the median survival ([7]; 50 μmol/kg ip 2Q1D5) was 36 days and the “amount of melanin in lung homogenate” value ([7]; 50 μmol/kg ip 2Q1D5, day 14) was 16 mg/mL.
